Data on 31 compounds can be found in US20120264735A1 (priority 2009, published 2012).

What is called pIC50 is the negative decadic logarithm of the IC50, by convention in mol/L.

pIC50: −log10 of the molar value.

T1 sequence (P08581 25-1390): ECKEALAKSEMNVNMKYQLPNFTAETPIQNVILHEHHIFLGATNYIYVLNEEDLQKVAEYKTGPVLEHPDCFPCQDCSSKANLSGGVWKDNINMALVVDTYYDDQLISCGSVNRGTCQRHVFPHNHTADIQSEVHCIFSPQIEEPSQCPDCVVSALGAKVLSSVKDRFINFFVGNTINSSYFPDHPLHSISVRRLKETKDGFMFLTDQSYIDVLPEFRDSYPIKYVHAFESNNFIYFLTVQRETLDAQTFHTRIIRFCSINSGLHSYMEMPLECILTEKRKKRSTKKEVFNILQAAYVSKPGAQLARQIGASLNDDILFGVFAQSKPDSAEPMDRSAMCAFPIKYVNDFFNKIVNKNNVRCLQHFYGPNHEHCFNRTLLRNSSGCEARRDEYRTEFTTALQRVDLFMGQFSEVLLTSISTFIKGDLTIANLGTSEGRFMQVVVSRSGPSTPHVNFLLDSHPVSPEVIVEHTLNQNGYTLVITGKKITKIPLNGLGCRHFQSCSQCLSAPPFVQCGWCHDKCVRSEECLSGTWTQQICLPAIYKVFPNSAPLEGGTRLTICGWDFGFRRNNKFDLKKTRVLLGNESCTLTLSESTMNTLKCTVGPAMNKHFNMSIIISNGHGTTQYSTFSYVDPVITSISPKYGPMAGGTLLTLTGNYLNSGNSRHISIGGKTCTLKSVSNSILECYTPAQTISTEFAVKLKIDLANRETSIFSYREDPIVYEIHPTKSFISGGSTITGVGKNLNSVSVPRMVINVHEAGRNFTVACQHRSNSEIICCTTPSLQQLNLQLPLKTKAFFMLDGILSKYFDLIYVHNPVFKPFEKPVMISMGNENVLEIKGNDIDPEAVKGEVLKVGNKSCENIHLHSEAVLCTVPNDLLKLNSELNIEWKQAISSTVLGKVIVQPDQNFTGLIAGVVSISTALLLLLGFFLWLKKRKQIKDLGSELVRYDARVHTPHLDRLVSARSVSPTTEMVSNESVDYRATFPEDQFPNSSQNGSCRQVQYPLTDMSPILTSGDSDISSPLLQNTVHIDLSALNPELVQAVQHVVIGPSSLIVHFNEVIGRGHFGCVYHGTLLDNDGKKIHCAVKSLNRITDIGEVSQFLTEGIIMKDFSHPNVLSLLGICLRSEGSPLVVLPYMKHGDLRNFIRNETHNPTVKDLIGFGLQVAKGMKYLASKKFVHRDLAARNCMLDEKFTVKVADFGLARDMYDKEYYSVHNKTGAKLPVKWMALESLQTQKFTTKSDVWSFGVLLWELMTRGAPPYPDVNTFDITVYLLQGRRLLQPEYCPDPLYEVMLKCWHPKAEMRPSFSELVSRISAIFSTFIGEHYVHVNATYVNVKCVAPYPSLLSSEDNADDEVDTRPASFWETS

The test concerns the target T1, c-Met kinase (recombinant c-Met) (Homo sapiens, UniProt P08581).
T1 construct: 0.27 nM recombinant c-Met
The test is described as follows: In vitro kinase assay I (homogeneous time-resolved fluorescence tyrosine kinase assay). Format: biochemical. Summed up:
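Biotinylated peptide (0.5 μM) phosphorylated by 0.2 nM recombinant c-Met with 50 μM MgATP, 60 min at room temperature, pH 7.4, 5% DMSO. EDTA stop; HTRF read with Eu-anti-phosphotyrosine antibody and streptavidin-APC. IC50 from 4-parameter logistic fit.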
As for `CCn1cc(-n2ccc(=O)c(C(C)c3cccc(-c4ncc(OCC5(F)CCNCC5)cn4)c3)n2)cn1` (single isomer, unassigned) [Example 338, 1-(1-ethyl-1H-pyrazol-4-yl)-3-[(1R or S)-1-(3-{5-[(4-fluoropiperidin-4-yl)methoxy]pyrimidin-2-yl}phenyl)ethyl]pyridazin-4(1H)-one], the negative logarithm of the IC50 (pIC50) is above 7.00. As to `CCn1cc(-n2ccc(=O)c(C(C)c3cccc(-c4ncc(OCc5cc(C)no5)cn4)c3)n2)cn1` (single isomer, unassigned) [Example 301, 1-(1-ethyl-1H-pyrazol-4-yl)-3-[(1R or S)-1-(3-{5-[(3-methylisoxazol-5-yl)methoxy]pyrimidin-2-yl}phenyl)ethyl]pyridazin-4(1H)-one], the pIC50 is above 7.00. In the case of `Cn1cc(-n2ccc(=O)c(Cc3cccc(NC(=O)OCC4CCC4)c3)n2)cn1` [Example 538, cyclobutylmethyl (3-{[1-(1-methyl-1H-pyrazol-4-yl)-4-oxo-1,4-dihydropyridazin-3-yl]methyl}phenyl)carbamate], the pIC50 is above 7.00. In the case of `CCOc1cnc(-c2cccc(Cc3nn(-c4cc(F)cc(C#N)c4)ccc3=O)c2)nc1` [Example 133, 3-{3-[3-(5-ethoxypyrimidin-2-yl)benzyl]-4-oxopyridazin-1(4H)-yl}-5-fluorobenzonitrile], the negative-log IC50 (pIC50) was above 7.00. With `N#Cc1cccc(-n2ccc(=O)c(Cc3cccc(NC(=O)OCCn4cncn4)c3)n2)c1` [Example 587, 2-(1H-1,2,4-triazol-1-yl)ethyl (3-{[1-(3-cyanophenyl)-4-oxo-1,4-dihydropyridazin-3-yl]methyl}phenyl)carbamate], the pIC50 was above 7.00.

For `N#Cc1cccc(-n2ccc(=O)c(Cc3cccc(NC(=O)OCC4CCOCC4)c3)n2)c1` [Example 579, tetrahydro-2H-pyran-4-ylmethyl (3-{[1-(3-cyanophenyl)-4-oxo-1,4-dihydropyridazin-3-yl]methyl}phenyl)carbamate], the pIC50 was above 7.00.

Regarding `CCOC(=O)Nc1cccc(Cc2nn(-c3cccc(OCC)c3)ccc2=O)c1` [Example 650, Ethyl(3-{[1-(3-ethoxyphenyl)-4-oxo-1,4-dihydropyridazin-3-yl]methyl}phenyl)carbamate], the negative-log IC50 (pIC50) is 6.00 to 7.00. On to `Cn1cc(-n2ccc(=O)c(Cc3cccc(-c4ncc(OCC5(CO)COC5)cn4)c3)n2)cn1` [Example 268, 3-[3-(5-{[3-(hydroxymethyl)oxetan-3-yl]methoxy}pyrimidin-2-yl)benzyl]-1-(1-methyl-1H-pyrazol-4-yl)pyridazin-4(1H)-one], for which the negative logarithm of the IC50 (pIC50) is above 7.00. Take `O=C(Nc1cccc(Cc2nn(-c3cc(F)c(F)c(F)c3)ccc2=O)c1)OCCn1cncn1` [Example 552, 2-(1H-1,2,4-triazol-1-yl)ethyl (3-{[4-oxo-1-(3,4,5-trifluorophenyl)-1,4-dihydropyridazin-3-yl]methyl}phenyl)carbamate]: the pIC50 is above 7.00. In the case of `CCn1cc(-n2ccc(=O)c(C(C)c3cccc(-c4ncc(OCC5CCO5)cn4)c3)n2)cn1` (single isomer, unassigned) [Example 296, 1-(1-ethyl-1H-pyrazol-4-yl)-3-[(1R or S)-1-{3-[5-(oxetan-2-ylmethoxy)primidin-2-yl]phenyl}ethyl]pyridazin-4(1H)-one], the pIC50 was above 7.00. As to `CCn1cnc(-c2cccc(Cc3nn(-c4cc(F)cc(C#N)c4)ccc3=O)c2)n1` [Example 83, 3-{3-[3-(1-ethyl-1H-1,2,4-triazol-3-yl)benzyl]-4-oxopyridazin-1(4H)-yl}-5-fluorobenzonitrile], the pIC50 is above 7.00. Consider `CC(C)CNC(=O)c1cnc(-c2cccc(Cc3nn(-c4cnn(C)c4)ccc3=O)c2)nc1` [Example 480, N-(2-methylpropyl)-2-(3-{[1-(1-methyl-1H-pyrazol-4-yl)-4-oxo-1,4-dihydro-pyridazin-3-yl]methyl}phenyl)pyrimidine-5-carboxamide], for which the negative logarithm of the IC50 (pIC50) was above 7.00. As for `CN(C)Cc1cnc(-c2cccc(Cc3nn(-c4cnn(C)c4)ccc3=O)c2)nc1` [Example 430, 3-(3-{5-[(dimethylamino)methyl]pyrimidin-2-yl}benzyl)-1-(1-methyl-1H-pyrazol-4-yl)pyridazin-4(1H)-one], the pIC50 was above 7.00. Take `O=C(NCCN1CCOCC1)Nc1cccc(Cc2nn(-c3ccc(F)c(F)c3)ccc2=O)c1` [Example 496, 1-(3-{[1-(3,4-difluorophenyl)-4-oxo-1,4-dihydropyridazin-3-yl]methyl}phenyl)-3-(2-morpholin-4-ylethyl)urea]: the negative-log IC50 (pIC50) is above 7.00. As for `CCCOC(=O)Nc1cccc(Cc2nn(-c3cc(F)c(F)c(F)c3)ccc2=O)c1` [Example 8, propyl (3-{[4-oxo-1-(3,4,5-trifluorophenyl)-1,4-dihydropyridazin-3-yl]methyl}phenyl)carbamate], the negative logarithm of the IC50 (pIC50) is above 7.00. With `CC(C)COC(=O)Nc1cccc(Cc2nn(-c3cnn(CCCC(=O)N4CCCCC4)c3)ccc2=O)c1` [Example 699, 2-methylpropyl [3-({4-oxo-1-[1-(4-oxo-4-piperidin-1-ylbutyl)-1H-pyrazol-4-yl]-1,4-dihydropyridazin-3-yl}methyl)phenyl] carbamate] the figure was above 7.00; with `Cn1cc(-n2ccc(=O)c(Cc3cccc(-c4ncc(OCc5ccncc5)cn4)c3)n2)cn1` [Example 353, 1-(1-Methyl-1H-pyrazol-4-yl)-3-{3-[5(pyridin-4-ylmethoxy)pyrimidin-2-yl]benzyl}pyridazin-4(1H)-one], above 7.00; with `CCOc1cnc(-c2cccc(Cc3nn(-c4cnn(C)c4)ccc3=O)c2)nc1C` [Example 177, 3-[3-(5-ethoxy-4-methylpyrimidin-2-yl)benzyl]-1-(1-methyl-1H-pyrazol-4-yl)pyridazin-4(1H)-one], above 7.00. As for `O=C(Nc1cccc(Cc2nn(-c3cc(F)cc(F)c3)ccc2=O)c1)OCCOCC(F)(F)F` [Example 595, 2-(2,2,2-trifluoroethoxy)ethyl (3-{[1-(3,5-difluorophenyl)-4-oxo-1,4-dihydropyridazin-3-yl]methyl}phenyl)carbamate], the negative logarithm of the IC50 (pIC50) is above 7.00.

Consider `CCOC(=O)Nc1cccc(Cc2nn(-c3cnn(C4CCOCC4)c3)ccc2=O)c1` [Example 91, ethyl [3-({4-oxo-1-[1-(tetrahydro-2H-pyran-4-yl)-1H-pyrazol-4-yl]-1,4-dihydropyridazin-3-yl}methyl)phenyl]carbamate], for which the negative-log IC50 (pIC50) was 6.00 to 7.00.

In the case of `CC(c1cccc(-c2nccc(C(C)(C)O)n2)c1)c1nn(-c2cnn(C)c2)ccc1=O` (single isomer, unassigned) [Example 694, 3-[(1R or S)-1-{3-[4-(2-hydroxypropan-2-yl)pyrimidin-2-yl]phenyl}ethyl]-1-(1-methyl-1H-pyrazol-4-yl)pyridazin-4(1H)-one], the pIC50 was 6.00 to 7.00. On to `COCCOc1cnc(-c2cccc(Cc3nn(-c4cccc(C#N)c4)ccc3=O)c2)nc1` [Example 319, 3-[3-{3-[5-(2-methoxyethoxy)pyrimidin-2-yl]benzyl}-4-oxopyridazin-1(4H)-yl]benzonitrile], for which the negative-log IC50 (pIC50) is above 7.00.

For the compound `CCOC(=O)Nc1cccc(Cc2nn(-c3cnn(CC(C)C)c3)ccc2=O)c1` [Example 92, ethyl [3-({1-[1-(2-methylpropyl)-1H-pyrazol-4-yl]-4-oxo-1,4-dihydropyridazin-3-yl}methyl)phenyl]carbamate], the negative-log IC50 (pIC50) is 6.00 to 7.00. As for `CN(C)CCOC(=O)Nc1cccc(Cc2nn(-c3cc(F)c(F)c(F)c3)ccc2=O)c1` [Example 546, 2-(dimethylamino)ethyl (3-{[4-oxo-1-(3,4,5-trifluorophenyl)-1,4-dihydropyridazin-3-yl]methyl}phenyl)carbamate], the pIC50 is above 7.00. Take `CN(C)C/C=C/c1cnc(-c2cccc(Cc3nn(-c4cnn(C)c4)ccc3=O)c2)nc1` [Example 403, 3-(3-{5-[(1E)-3-(dimethylamino)prop-1-en-1-yl]pyrimidin-2-yl}benzyl)-1-(1-methyl-1H-pyrazol-4-yl)pyridazin-4(1H)-one]: the pIC50 was above 7.00. With `Cn1cc(-n2ccc(=O)c(Cc3cccc(-c4ncc(-n5cnnc5)cn4)c3)n2)cn1` [Example 473, 1-(1-Methyl-1H-pyrazol-4-yl)-3-{3-[5-(4H-1,2,4-triazol-4-yl)pyrimidin-2-yl]benzyl}pyridazin-4(1H)-one], the pIC50 is above 7.00. Take `CCn1cc(-n2ccc(=O)c(C(C)c3cccc(-c4ncc(OCC5COCCO5)cn4)c3)n2)cn1` (single isomer, unassigned) [Example 299, 3-[(1R or S)-1-{3-[5-(1,4-dioxan-2-ylmethoxy)pyrimidin-2-yl]phenyl}ethyl]-1-(1-ethyl-1H-pyrazol-4-yl)pyriazin-4(1H)-one]: the pIC50 was above 7.00. Regarding `CCn1cc(-n2ccc(=O)c(Cc3cccc(-c4ncc(OCC5(F)CCNCC5)cn4)c3)n2)cn1` [Example 335, 1-(1-ethyl-1H-pyrazol-4-yl)-3-(3-{5-[(4-fluoropiperidin-4-yl)methoxy]pyrimidin-2-yl}benzyl)pyridazin-4(1H)-one], the negative logarithm of the IC50 (pIC50) was above 7.00. As for `CN(C)C(=O)CCOC(=O)Nc1cccc(Cc2nn(-c3cc(F)cc(F)c3)ccc2=O)c1` [Example 589, 3-(dimethylamino)-3-oxopropyl (3-{[1-(3,5-difluorophenyl)-4-oxo-1,4-dihydropyridazin-3-yl]methyl}phenyl)carbamate], the negative-log IC50 (pIC50) is above 7.00. For `O=c1ccn(-c2ccc(F)c(F)c2)nc1Cc1cccc(-c2ncc(OCC3CCOC3)cn2)c1` (single isomer, unassigned) [Example 352, 1-(3,4-difluorophenyl)-3-(3-{5-[(3S or R)-tetrahydrofuran-3-ylmethoxy]pyrimidin-2-yl}benzyl)pyridazin-4(1H)-one], the negative logarithm of the IC50 (pIC50) was above 7.00. For `CCn1cc(-n2ccc(=O)c(C(C)c3cccc(-c4ncn(CC)n4)c3)n2)cn1` (single isomer, unassigned) [Example 686, 1-(1-ethyl-1H-pyrazol-4-yl)-3-{(1S or R)-1-[3-(1-ethyl-1H-1,2,4-triazol-3-yl)phenyl]ethyl} pyridazin-4(1H)-one], the pIC50 is 6.00 to 7.00.
